The values that follow come from patent publication US8772313B2, “Benzenesulfonyl or sulfonamide compounds suitable for treating disorders that respond to the modulation of the serotonin 5-HT6 receptor” (Abbott Laboratories, priority 2010, dated 2014).

pKd, pKi: −log10 of the molar value. Counter-ions that a name gives are not always drawn.

T1 sequence (P50406 whole entry): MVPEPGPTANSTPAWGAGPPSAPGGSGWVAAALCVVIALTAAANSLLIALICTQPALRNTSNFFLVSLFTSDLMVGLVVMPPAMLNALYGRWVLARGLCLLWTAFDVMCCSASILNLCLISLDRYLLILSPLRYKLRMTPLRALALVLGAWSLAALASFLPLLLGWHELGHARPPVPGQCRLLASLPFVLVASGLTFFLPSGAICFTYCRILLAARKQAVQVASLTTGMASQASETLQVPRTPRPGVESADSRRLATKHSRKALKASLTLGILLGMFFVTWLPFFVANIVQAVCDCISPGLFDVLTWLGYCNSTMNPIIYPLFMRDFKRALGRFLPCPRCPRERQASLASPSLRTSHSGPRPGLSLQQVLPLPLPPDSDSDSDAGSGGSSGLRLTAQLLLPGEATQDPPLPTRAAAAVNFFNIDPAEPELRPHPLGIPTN
T2 sequence (P14416 whole entry): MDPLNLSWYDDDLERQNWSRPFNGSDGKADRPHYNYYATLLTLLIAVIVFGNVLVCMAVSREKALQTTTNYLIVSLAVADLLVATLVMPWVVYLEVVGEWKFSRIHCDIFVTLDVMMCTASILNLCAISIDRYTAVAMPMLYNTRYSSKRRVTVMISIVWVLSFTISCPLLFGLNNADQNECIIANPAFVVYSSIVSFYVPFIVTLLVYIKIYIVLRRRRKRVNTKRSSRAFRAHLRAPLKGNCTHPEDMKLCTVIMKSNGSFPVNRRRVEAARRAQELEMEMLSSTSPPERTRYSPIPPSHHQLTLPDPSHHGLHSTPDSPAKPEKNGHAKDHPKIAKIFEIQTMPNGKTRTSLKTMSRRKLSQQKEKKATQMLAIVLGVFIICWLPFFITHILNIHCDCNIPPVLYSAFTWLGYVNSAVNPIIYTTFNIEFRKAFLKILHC

The first experiment concerns the target T1, h-5-HT6 receptor (Homo sapiens, UniProt P50406).
T1 construct: expressed in transfected cells
The experiment can be described thus: 5-HT6 receptor binding assay (displacement of [3H]-LSD). As to conditions: membranes of HEK293 cells expressing h-5-HT6 receptor, 1 nM [3H]-LSD. On the procedure:
Displacement of radioligands binding to the following cloned human receptors
Cells from stable clonal cell lines expressing the corresponding receptor (5-HT6, α1-adrenergic, dopamine D2 or histamine H1 receptors) were washed with PBS (w/o Ca^++, Mg^++) and harvested in PBS with 0.02% EDTA. The cells were collected by centrifugation at 500 g for 10 min. at 4° C., washed with PBS and centrifuged (500 g, 10 min. 4° C.). The pellets were stored at −80° C. until use. For membrane preparation, the thawed cell pellet was resuspended in ice-cold sucrose buffer (0.25 M sucrose, 10 mM Hepes (pH 7.4), 1 mM Phenylmethylsulfonyl fluoride (PMSF) in DMSO, 5 μg/ml Pepstatin-A, 3 mM EDTA, 0.025% Bacitracin) and homogenized with a Branson Sonifier W-250 (Settings: Timer 4; Output Control 3; Duty Cycle constant; 2 to 3 cycles). Cell disruption was checked with the aid of a microscope. Remaining unbroken cells were pelleted at 1.000 g for 10 min. at 4° C. The sucrose buffer supernatant was then centrifuged at 60.000 g for 1 h at 4° C. (Beckman Ultrazentrifuge XL 80). The pellet was resuspended in 30 ml ice-cold Tris buffer (20 mM TRIS (pH 7.4), 5 μg/ml Pepstatin A, 0.1 mM PMSF, 3 mM EDTA) by pipetting through a 10 ml serological pipet and centrifuged for 1 h at 4° C. at 60.000 g. A final resuspension was performed in a small volume of ice-cold Tris buffer (see above) by pressing through a serological pipet followed by ultrasonic treatment with a Branson Sonifier W-250 (Settings: Timer 1; Output Control 3; Duty Cycle constant; 1 cycle). Protein concentration was determined (BCA-Kit; Pierce) and aliquots stored at −80° C. or in liquid nitrogen for long-term storage.
All receptor binding experiments were carried out in the corresponding assay buffer in a total volume of 200 μl in the presence of various concentrations of test compound (10^−5 M to 10^−9 M, tenfold serial dilution, duplicate determinations). The assays were terminated by filtration on polyethylenimine (PEI 0.1% or 0.3%) presoaked Packard Unifilter Plates (GF/C or GF/B) with a Tomtec MachIII U 96 well-plate harvester. After the plates had been dried for 2 h at 55° C. in a drying chamber scintillation cocktail (BetaPlate Scint; PerkinElmer) was added. Radioactivity was measured in a Microbeta Trilux two hours after the addition of the scintillation mixture. Data derived from liquid scintillation counting were analysed by iterative non-linear regression analysis with the use of the Statistical Analysis System (SAS): a program similar to “LIGAND” as described by Munson and Rodbard (Analytical Biochemistry 107, 220-239 (1980).
HEK293 cells stably expressing the h-5-HT6 receptor (NCBI Reference Sequence XM 001435) were cultured in RPMI1640 medium supplemented with 25 mM HEPES, 10% fetal calf serum and 1-2 mM glutamine. The membrane preparation was performed as described in section 1. […] Non-specific binding was defined with 1 μM methiothepin. The binding reaction was carried out for 3.5 h at room temperature. During the incubation, the plates were shaken on a plate shaker at 100 rpm and terminated by filtration on Packard Unifilter GF/C (0.1% PEI) plates, followed by 2 wash cycles with ice-cold 50 mM Tris-HCl, 5 mM CaCl2.
Data derived from liquid scintillation counting were analyzed by iterative non-linear regression analysis with the use of the Statistical Analysis System (SAS): a program similar to “LIGAND” as described by Munson and Rodbard (Anal. Biochem. 1980, 107, 220-239). Fitting was performed according to formulae described by Feldman (Anal. Biochem. 1972, 48, 317-338). IC50, nH and Ki values were expressed as geometrical mean.
(In general: Loss of bound radioactivity is the signal in a displacement assay; it reports binding, not function.)
In general, pKi refers to the Ki on a negative log10 scale, so that one unit is a factor of ten. Read a high pKi as a small Ki. Consider `COc1ccc(S(=O)(=O)Nc2cc(C)ccc2OC(F)F)cc1C1CCNC1` (centres unmarked) [Example 1, N-(2-Difluoromethoxy-5-methyl-phenyl)-4-methoxy-3-pyrrolidin-3-yl-benzenesulfonamide hydrochloride], for which the pKi is above 8.00.

With `COc1ccc(S(=O)(=O)Nc2cc(C)ccc2OC(F)F)cc1C1CCN(C)C1` (centres unmarked) [Example 2, N-(2-Difluoromethoxy-5-methyl-phenyl)-4-methoxy-3-(1-methyl-pyrrolidin-3-yl)-benzenesulfonamide hydrochloride], the pKi was above 8.00.

Take `COCc1ccccc1NS(=O)(=O)c1ccc(OC)c(C2CCNC2)c1` (centres unmarked) [Example 3, 4-Methoxy-N-(2-methoxymethyl-phenyl)-3-pyrrolidin-3-yl-benzenesulfonamide hydrochloride]: the pKi was above 7.70.

Molecule `COc1ccc(S(=O)(=O)Nc2cc(C)ccc2OC(F)F)cc1C1CCNCC1` [Example 4, N-(2-Difluoromethoxy-5-methyl-phenyl)-4-methoxy-3-piperidin-4-yl-benzenesulfonamide hydrochloride] showed a negative-log Ki (pKi) above 8.00.

The molecule `COc1ccc(S(=O)(=O)Nc2ccc(C)cc2OC(F)F)cc1C1CCNCC1` [Example 5, N-(2-Difluoromethoxy-4-methyl-phenyl)-4-methoxy-3-piperidin-4-yl-benzenesulfonamide hydrochloride] had a pKi above 7.70.

As for `COCc1ccccc1NS(=O)(=O)c1ccc(OC)c(C2CCNCC2)c1` [Example 6, 4-Methoxy-N-(2-methoxymethyl-phenyl)-3-piperidin-4-yl-benzenesulfonamide hydrochloride], the pKi was above 7.00.

`COc1ccc(S(=O)(=O)Nc2cc(C)ccc2OC(F)F)cc1C1CCN(C)CC1` [Example 7, N-(2-Difluoromethoxy-5-methyl-phenyl)-4-methoxy-3-(1-methyl-piperidin-4-yl)-benzenesulfonamide hydrochloride] showed a negative-log Ki (pKi) above 8.00.

The next experiment concerns the target T2, dopamine D2 receptor (Homo sapiens, UniProt P14416).
T2 construct: expressed in transfected cells
Description: Dopamine D2 receptor binding assay (displacement of [125I]-iodospiperone). The conditions noted are these: saturation binding experiments, HEK293 D2 membranes; read-out: KD of radioligand. On the procedure: The pellets were stored at −80° C. until use. […] (Beckman Ultrazentrifuge XL 80).
Non-specific binding was defined with 1 μM haloperidol.
Usually pKd stands for the Kd on a negative log10 scale, so that one unit is a factor of ten. For iodospiperone [[^125I]-iodospiperone], the pKd was 9.66.
